Tested on: myocardial cells derived from human iPS cells
Assay: Drug response of myocardial cells determined with MEA probe
Conditions: for Drug response, Oriented fiber sheet 2: myocardial cells cultured 7 days with oriented fiber sheet 2, pitch 10 μm

## COc1ccc(CCN(C)CCCC(C#N)(c2ccc(OC)c(OC)c2)C(C)C)cc1OC (stereo not shown) [Verapamil]
0.3 μM verapamil, myocardial cells directly cultured on MEA probe
  arrest (division stop): arrest (division stop) occurred
  Drug response, Oriented fiber sheet 2: No arrest occurred.
Listed as verapamil
  Drug response, Oriented fiber sheet 2: no an arrest (division stop) occurred
Myocardial cells cultured directly on MEA probe
  Drug response, MEA probe: Arrest occurred.
